What was measured:
[1] = test system: MDA-MB-231; settings: incubation time: 72 h
Method in brief: (§1)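 For the IC50 and drug sensitivity score, logistic dose–response curves were fitted in Dotmatics Studies. The score compares curve area with a reference area and is normalised by log of top response. Input data were CellTiter-Blue fluorescence readings from MDA-MB-231 cells, transfected a day earlier with BRCA1 or non-targeting control siRNA, that had spent 72 h at 37 °C and 5% CO2 at 4000 cells per well in 384-well plates with compounds at 5 concentrations.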

[2] = test system: MDA-MB-231; assay: drug sensitivity score (DSS); higher = more sensitive; extreme values may be limits of the assay; settings: incubation time: 72 h
Method in brief: as §1

[3] = siRNA: siControl (non-targeting)

Structure (SMILES) | IC50 of cell viability ([1]; siRNA: siBRCA1) | IC50 of cell viability [1, 3] | drug sensitivity score ([2]; siRNA: siBRCA1) | drug sensitivity score [2, 3]
C[C@@H](C(=O)O)c1ccc(-c2ccccc2)c(F)c1 [Tarenflurbil] | > 4170 nM | > 4170 nM | 0 | 0
C[C@]12CC[C@H](O)CC1=CC[C@@H]1[C@@H]2CC[C@]2(C)C(c3cccnc3)=CC[C@@H]12 [Abiraterone] | > 4170 nM | > 4170 nM | 0 | 0
CC(=O)c1c(C)c2cnc(Nc3ccc(N4CCNCC4)cn3)nc2n(C2CCCC2)c1=O | 125 nM | 248 nM | 6.11 | 9.43
NC(=O)NO [Hydroxyurea] | > 4170 nM | > 4170 nM | 0 | 0
CN(C)/N=N/c1[nH]cnc1C(N)=O [Dacarbazine] | 1330 nM | 96.4 nM | 2.68 | 7.63
Cc1cn(-c2cc(NC(=O)c3ccc(C)c(Nc4nccc(-c5cccnc5)n4)c3)cc(C(F)(F)F)c2)cn1 [Nilotinib] | > 4170 nM | > 4170 nM | 0 | 0
CCNC(=O)CCC/C=C\C[C@@H]1[C@@H](/C=C/[C@@H](O)CCc2ccccc2)[C@H](O)C[C@@H]1O [Bimatoprost] | > 4170 nM | > 4170 nM | 0 | 0
C[C@]1(O)C[C@@H](c2nc(-c3ccc4ccc(-c5ccccc5)nc4c3)c3c(N)nccn32)C1 [OSI-906] | > 4170 nM | > 4170 nM | 0 | 0
CO[C@@]12[C@H](COC(N)=O)C3=C(C(=O)C(C)=C(N)C3=O)N1C[C@@H]1N[C@@H]12 [Mitomycin C] | > 4170 nM | > 4170 nM | 0 | 0
Nc1nc2[nH]cnc2c(=S)[nH]1 [Thioguanine] | 1850 nM | > 4170 nM | 3.71 | 0
COc1nc(N)nc2c1ncn2[C@@H]1O[C@H](CO)[C@@H](O)[C@@H]1O [Nelarabine] | > 4170 nM | > 4170 nM | 0 | 0
Cn1cc(C2=C(c3cn(C4CCN(Cc5ccccn5)CC4)c4ccccc34)C(=O)NC2=O)c2ccccc21 [Enzastaurin] | > 4170 nM | > 4170 nM | 0 | 0
CN(C)CCN1C(=O)c2cccc3cc(N)cc(c23)C1=O [Amonafide] | 1790 nM | 2160 nM | 8.98 | 6.72
O=c1[nH]cc(F)c(=O)[nH]1 [Fluorouracil] | > 4170 nM | > 4170 nM | 1.13 | 0.956
CO[C@H]1C[C@@H]2CC[C@@H](C)[C@@](O)(O2)C(=O)C(=O)N2CCCC[C@H]2C(=O)O[C@H]([C@H](C)C[C@@H]2CC[C@@H](O)[C@H](OC)C2)CC(=O)[C@H](C)/C=C(\C)[C@@H](O)[C@@H](OC)C(=O)[C@H](C)C[C@H](C)/C=C/C=C/C=C/1C [Rapamycin (Sirolimus)] | 0.904 nM | < 0.833 nM | 15.5 | 15.3
S=c1[nH]cnc2nc[nH]c12 [Mercaptopurine] | > 4170 nM | 991 nM | 0 | 4.58
CCCCCCCCc1ccc(CCC(N)(CO)CO)cc1 [Fingolimod] | 3000 nM | 1710 nM | 5.09 | 7.79
CCC/C=C/C=C/C(=O)O[C@H]1/C(=C/C(=O)OC)C[C@H]2C[C@H]([C@@H](C)O)OC(=O)C[C@H](O)C[C@@H]3C[C@H](OC(C)=O)C(C)(C)[C@](O)(C[C@@H]4C/C(=C/C(=O)OC)C[C@H](/C=C/C(C)(C)[C@]1(O)O2)O4)O3 [Bryostatin 1] | 83.3 nM | 83.3 nM | 0 | 0
COc1ccc(-c2cc3c(C)nc(N)nc3n([C@H]3CC[C@H](OCCO)CC3)c2=O)cn1 | 125 nM | 129 nM | 18.9 | 18.6
c1ccc([C@H]2CN3CCSC3=N2)cc1 [Levamisole] | 3160 nM | > 4170 nM | 0.142 | 0
O=C(CCBr)N1CCN(C(=O)CCBr)CC1 [Pipobroman] | > 4170 nM | > 4170 nM | 1.55 | 0

Structure (SMILES) | IC50 of cell viability ([1]; siRNA: siBRCA1) | IC50 of cell viability [1, 3] | drug sensitivity score ([2]; siRNA: siBRCA1) | drug sensitivity score [2, 3]
c1cc(CN2CCCNCCNCCCNCC2)ccc1CN1CCCNCCNCCCNCC1 [Plerixafor] | 2080 nM | 2080 nM | 0 | 0
COc1cc2c(N3CCN(C(=O)Nc4ccc(OC(C)C)cc4)CC3)ncnc2cc1OCCCN1CCCCC1 [Tandutinib] | > 4170 nM | 1130 nM | 0.708 | 3.18
CC(C)C(=O)Nc1ccc([N+](=O)[O-])c(C(F)(F)F)c1 [Flutamide] | > 4170 nM | > 4170 nM | 0 | 0
CCCCC(=O)OCC(=O)[C@]1(O)Cc2c(O)c3c(c(O)c2[C@@H](O[C@H]2C[C@H](NC(=O)C(F)(F)F)[C@H](O)[C@H](C)O2)C1)C(=O)c1c(OC)cccc1C3=O [Valrubicin] | 729 nM | 273 nM | 9.56 | 12.5
CC(C)(C)NC(=O)[C@H]1CC[C@H]2[C@@H]3CC[C@H]4NC(=O)C=C[C@]4(C)[C@H]3CC[C@]12C [Finasteride] | > 4170 nM | > 4170 nM | 0 | 0
Cc1c(C(=O)Nc2ccc(N3C[C@@H](C)O[C@@H](C)C3)nc2)cccc1-c1ccc(OC(F)(F)F)cc1 [NVP-LDE225] | > 4170 nM | > 4170 nM | 0 | 0
CC(C)Cn1cnc2c(N)nc3ccccc3c21 [Imiquimod] | > 4170 nM | > 4170 nM | 0 | 0
O=C(NC[C@H](O)CO)c1ccncc1Nc1ccc(I)cc1F | 132 nM | 50 nM | 16 | 17.4
CC(C)(C)c1cnc(CSc2cnc(NC(=O)C3CCNCC3)s2)o1 [SNS-032] | 53.1 nM | 30.1 nM | 23.9 | 27.6
Cc1ccc(NC(=O)c2ccc(CN3CCN(C)CC3)cc2)cc1Nc1nccc(-c2cccnc2)n1 [Imatinib] | > 4170 nM | > 4170 nM | 0 | 0
COc1cccc2c1C(=O)c1c(O)c3c(c(O)c1C2=O)C[C@@](O)(C(C)=O)C[C@@H]3O[C@H]1C[C@H](N)[C@H](O)[C@H](C)O1 [Daunorubicin] | 159 nM | 52.2 nM | 19.8 | 24.9
Cn1c(=O)n(-c2ccc(C(C)(C)C#N)cc2)c2c3cc(-c4cnc5ccccc5c4)ccc3ncc21 [NVP-BEZ235 (Dactolisib)] | 8.83 nM | 10.2 nM | 16.9 | 16.6
CC1(C)NC(=O)N(c2ccc([N+](=O)[O-])c(C(F)(F)F)c2)C1=O [Nilutamide] | > 4170 nM | > 4170 nM | 0 | 0
C#Cc1cccc(Nc2ncnc3cc(OC)c(OCCCCCCC(=O)NO)cc23)c1 [CUDC-101] | 433 nM | 321 nM | 14.7 | 16.4
COc1cc2/c(=N/c3ccc(Br)cc3F)nc[nH]c2cc1OCC1CCN(C)CC1 [Vandetanib] | 1850 nM | 1860 nM | 7.31 | 7.25
Nc1ncn([C@H]2C[C@H](O)[C@@H](CO)O2)c(=O)n1 [Decitabine] | > 4170 nM | > 4170 nM |  | 0
O=NN(CCCl)C(=O)NCCCl [Carmustine] | > 4170 nM | > 4170 nM | 0 | 0
COC1=CC(c2cc3ccccc3[nH]2)=N/C1=C\c1[nH]c(C)cc1C [Obatoclax] | 399 nM | 355 nM | 15 | 15
C[C@]12O[C@H](C[C@]1(O)CO)n1c3ccccc3c3c4c(c5c6ccccc6n2c5c31)CNC4=O [Lestaurtinib] | 1400 nM | 794 nM | 8.59 | 11.3
Oc1ncc(N(CCCl)CCCl)c(O)n1 [Uracil mustard] | > 4170 nM | > 4170 nM | 0 | 0
Cc1nc(Nc2ncc(C(=O)Nc3c(C)cccc3Cl)s2)cc(N2CCN(CCO)CC2)n1 [Dasatinib] | 11 nM | 11.3 nM | 27 | 27
